Experimental data: patent publication US8497278B2, “Imidazo[1,2-a]pyridine compounds” (priority 2008, dated 2013)
Marks after values point to notes of the source that are not given here.

Assays:
[1] = tested on: 129SVEV mice; assay: Stress-Induced Hyperthermia (SIH) test; type: in vivo; conditions: mouse, 60 min before test
Experimental: Stress-Induced Hyperthermia (SIH) protocol: The stress-induced hyperthermia (SIH) test is based on the principle that animal's have a natural hyperthermic response to stress. The test involves taking two measures of rectal temperature in the same animal within a 10 minute interval. The two sequential rectal temperature measurements reveal the animal's basal temperature (T1) and 10 minutes later, an enhanced body temperature (T2) due to the stress of the first rectal temperature. The difference T2-T1 (delta T) is the SIH response. When anxiolytic drugs are administered prior to recording temperature, they reduce the stress response.
Adult male 129SVEV mice (6 weeks old) from Taconic Laboratories (Germantown, N.Y.) were used in these studies. Upon receipt, mice were assigned unique identification numbers (tail marked) and were group housed in OptiMICE ventilated racks. All animals remained group housed during the remainder of the study unless indicated otherwise. All mice were acclimated to the colony room for at least two weeks prior to testing and were subsequently tested at 8 weeks of age. During the period of acclimation, mice were examined on a regular basis, handled, and weighed to assure adequate healtH, D and suitability. Mice were maintained on a 12/12 light/dark cycle with the light on at 7:00 a.m. The room temperature was maintained between 20 and 23° C. with a relative humidity maintained between 30% and 70%. Chow and water were provided ad libitum for the duration of the study. Animals were not disturbed between test days.
On the day prior to testing, the mice were brought to the experimental room one hour before scheduled lights out and singly housed overnight with food and water ad libitum. On the morning of the experiment, mice were orally dosed via gavage with vehicle, CDP (10 mg/kg) or compounds of the present invention (3, 10 or 30 mg/kg) and placed back in the cages. One hour after oral gavage, each animal was removed from the holding cage and held in a supine position and rectal temperature was measured. The rectal probe was attached to a PhysiTemp digital thermometer (Fisher Scientific) which provides temperature readings at 0.1° C. accuracy. The probe remained inside the animal for approximately 5 seconds or until body temperature reached stability. This temperature was recorded as the baseline rectal temperature (T1). The animal was immediately placed back to the holding cage and after a 10-min interval the 2nd rectal temperature (T2) was taken using the same procedure as in measuring T1. Before each insertion, the rectal probe was cleaned with an alcohol pad and lubricated with sterile K-Y jelly.
Chlordiazepoxide (10 mg/kg) was used as the positive control. Compounds of the present invention, vehicle (45% hydroxypropyl beta-cyclodextrin) and chlordiazepoxide were administered orally to all groups (n=10 […] per group) 60 minutes prior to behavioral testing. All data were analyzed using an analysis of variance (ANOVA) followed by Fisher's PLSD post hoc test. An effect was considered significance if p<0.05. Statistical outliers above or below 2 standard deviations from the mean in any of the temperature measures were removed from the final analysis.

[2] = tested on: rhesus monkeys; assay: Rhesus monkey conflict test; type: in vivo; conditions: cumulative dosing
From the text: Conflict protocol: The conflict procedure is a well established operant conditioning approach to evaluate anxiolytic-like effects of test compounds. In this procedure, positively-reinforced behavior is suppressed by response-contingent administration of a noxious stimulus (i.e., mild electric shock). Compounds with anxiolytic effects in humans (e.g., benzodiazepines) characteristically increase rates of responding that are suppressed by shock and are referred to as anti-conflict or anxiolytic-like effects. […] In addition to anxiolytic-like effects, conflict procedures also provide an assessment of the ability of the animal to perform operant lever pressing. This is typically assessed by including lever pressing in the absence of the noxious stimulus. Most anxiolytic compounds will decrease rates of responding in the absence of shock at doses higher than those that induce anxiolytic-like effects. The effects contributing to anxiolytic-induced decreases in non-suppressed responding are not well understood, but likely consist of a combination of motor co-ordination deficits and sedative effects.
Adult rhesus monkeys were used in these studies (n=1-4). Weights of the monkeys ranged from 6.2 to 10.5 kg. The animals had been previously trained using the conflict procedure. Animals were maintained at 85-95% of their free-feeding weights by manipulation of food intake. Monkeys were individually housed with water available ad libitum, and maintained on a 12 hour lights-on/12 hour lights-off cycle (lights on at 0600 a.m.). Monkeys received Harlan Teklad diet (15% Primate Diet) as well as supplemental feeding (fruits, vegetables, and commercially available primate treats) daily. They were also given toys and video enrichment when not in an experimental session. Each animal was prepared prior to the study with a chronic indwelling venous catheter for drug delivery. A polyvinyl chloride catheter was implanted in a jugular, femoral or brachial vein under isoflurane anesthesia and aseptic conditions. The proximal end of the catheter terminated above the right atrium, and the distal end was passed subcutaneously to exit in the midscapular region. Experimental sessions began 5-7 days following surgery. Catheters had been implanted approximately 3 months to 1 year prior to the initiation of the study. During experimental sessions, monkeys were seated in primate chairs that were placed in ventilated sound-attenuating chambers. A single response lever was mounted on the wall of the chamber in front of the monkey. Each press of a lever produced an audible click and was recorded as a response via electromechanical equipment, a computer interface, and PC with specialized software. Food pellets could be delivered into a tray located next to the lever. Mild electric shock could be delivered to the bottom of the feet via brass electrodes that were fitted to shoes. Red and green lights mounted above the levers could be illuminated to serve as visual stimuli.
Monkeys were trained under a multiple schedule of food reinforcement adapted from Spealman (1979). A daily session consisted of 4 cycles, each preceded by a 10-min time out period in which all lights in the chamber were off and responding had no programmed consequences. Each cycle consisted of two components, component 1 and 2. Component 1 was signaled by red stimulus lights and consisted of an 18-response schedule (FR18) of food pellet delivery (i.e., the animal receives a food pellet following 18 responses). Component 2, signaled by green stimulus lights, followed immediately and consisted of the FR18 schedule of food delivery combined with a FR20 schedule of foot shock delivery (1.5-3.0 mA, adjusted for each monkey based on individual performance, 0.25 sec duration). Delivery of a food pellet (FR18 schedule) was followed by a 10 sec time out in which responses had no programmed consequences. […]

Cn1ncnc1Cc1c(-c2ccc(F)cc2)nc2ccc(F)cn12 [Compound 200, 6-fluoro-2-(4-fluorophenyl)-3-((1-methyl-1H-1,2,4-triazol-5-yl)methyl)imidazo[1,2-a]pyridine]
Change in Temperature (T2 − T1) Mean ± S.E.M. ([1]; 3 mg/kg PO): −0.13 ± 0.11 °C
Change in Temperature (T2 − T1) Mean ± S.E.M. ([1]; 10 mg/kg PO): −0.50 ± 0.15 °C
Change in Temperature (T2 − T1) Mean ± S.E.M. ([1]; 30 mg/kg PO): −0.66 ± 0.13 °C
Non-Suppressed Response Rates Mean ± S.E.M. ([2]; 0.3 mg/kg IV): 3.2 Responses/Second
Suppressed Response Rates Mean ± S.E.M. ([2]; 0.3 mg/kg IV): 0.02 Responses/Second
Non-Suppressed Response Rates Mean ± S.E.M. ([2]; 1 mg/kg IV): 2.9 Responses/Second
Suppressed Response Rates Mean ± S.E.M. ([2]; 1 mg/kg IV): 0.02 Responses/Second
Non-Suppressed Response Rates Mean ± S.E.M. ([2]; 1.8 mg/kg IV): 2.4 Responses/Second
Suppressed Response Rates Mean ± S.E.M. ([2]; 1.8 mg/kg IV): 1.4* Responses/Second
Non-Suppressed Response Rates Mean ± S.E.M. ([2]; 3 mg/kg IV): 3.1 Responses/Second
Suppressed Response Rates Mean ± S.E.M. ([2]; 3 mg/kg IV): 1.2* Responses/Second
Non-Suppressed Response Rates Mean ± S.E.M. ([2]; 5.6 mg/kg IV): 3.3 Responses/Second
Suppressed Response Rates Mean ± S.E.M. ([2]; 5.6 mg/kg IV): 1.9* Responses/Second

CNC(=O)c1nccn1Cc1c(-c2ccc(Cl)cc2)nc2ccccn12 [Compound 77, 1-((2-(4-chlorophenyl)H-imidazo[1,2-a]pyridin-3-yl)methyl)-N-methyl-1H-imidazole-2-carboxamide]
Change in Temperature (T2 − T1) Mean ± S.E.M. ([1]; 3 mg/kg PO): 0.37 ± 0.15 °C
Change in Temperature (T2 − T1) Mean ± S.E.M. ([1]; 10 mg/kg PO): 0.55 ± 0.11 °C
Change in Temperature (T2 − T1) Mean ± S.E.M. ([1]; 30 mg/kg PO): 0.55 ± 0.12 °C

Clc1ccc(-c2nc3cccnn3c2Cn2cncn2)cc1 [Compound 32, 3-((1H-1,2,4-triazol-1-yl)methyl)-2-(4-chlorophenyl)imidazo[1,2-b]pyridazine]
Change in Temperature (T2 − T1) Mean ± S.E.M. ([1]; 3 mg/kg PO): 0.26 ± 0.04 °C
Change in Temperature (T2 − T1) Mean ± S.E.M. ([1]; 10 mg/kg PO): 0.28 ± 0.10 °C
Change in Temperature (T2 − T1) Mean ± S.E.M. ([1]; 30 mg/kg PO): 0.37 ± 0.06 °C
Non-Suppressed Response Rates Mean ± S.E.M. ([2]; 0.1 mg/kg IV): 2.50 ± 0.29 Responses/Second
Suppressed Response Rates Mean ± S.E.M. ([2]; 0.1 mg/kg IV): 0.03 ± 0.01 Responses/Second
Non-Suppressed Response Rates Mean ± S.E.M. ([2]; 0.3 mg/kg IV): 2.58 ± 0.44 Responses/Second
Suppressed Response Rates Mean ± S.E.M. ([2]; 0.3 mg/kg IV): 0.24 ± 0.17 Responses/Second
Non-Suppressed Response Rates Mean ± S.E.M. ([2]; 1 mg/kg IV): 1.82 ± 0.67 Responses/Second
Suppressed Response Rates Mean ± S.E.M. ([2]; 1 mg/kg IV): 1.1 ± 0.67 Responses/Second
Non-Suppressed Response Rates Mean ± S.E.M. ([2]; 3 mg/kg IV): 1.77 ± 0.64 Responses/Second
Suppressed Response Rates Mean ± S.E.M. ([2]; 3 mg/kg IV): 1.19 ± 0.36 Responses/Second

Clc1ccc(-c2nc3ccccn3c2Cc2ncn[nH]2)cc1 [Compound 211, 3-((1H-1,2,4-triazol-5-yl)methyl)-2-(4-chlorophenyl)imidazo[1,2-a]pyridine]
Change in Temperature (T2 − T1) Mean ± S.E.M. ([1]; 3 mg/kg PO): 0.37 ± 0.08 °C
Change in Temperature (T2 − T1) Mean ± S.E.M. ([1]; 10 mg/kg PO): 0.33 ± 0.09 °C
Change in Temperature (T2 − T1) Mean ± S.E.M. ([1]; 30 mg/kg PO): 0.37 ± 0.09 °C

NC(=O)c1ncn(Cc2c(-c3ccc(Cl)cc3)nc3ccccn23)n1 [Compound 72, 1-((2-(4-chlorophenyl)imidazo[1,2-a]pyridin-3-yl)methyl)-1H-1,2,4-triazole-3-carboxamide]
Change in Temperature (T2 − T1) Mean ± S.E.M. ([1]; 3 mg/kg PO): 0.21 ± 0.11 °C
Change in Temperature (T2 − T1) Mean ± S.E.M. ([1]; 10 mg/kg PO): 0.32 ± 0.05 °C
Change in Temperature (T2 − T1) Mean ± S.E.M. ([1]; 30 mg/kg PO): 0.44 ± 0.10 °C

Cc1ccn(Cc2c(-c3ccc(Cl)cc3)nc3ccccn23)c(=O)n1 [Compound 105, 1-((2-(4-chlorophenyl)imidazo[1,2-a]pyridin-3-yl)methyl)-4-methylpyrimidin-2(1H)-one]
Non-Suppressed Response Rates Mean ± S.E.M. ([2]; 0.1 mg/kg IV): 2.68 ± 0.37 Responses/Second
Suppressed Response Rates Mean ± S.E.M. ([2]; 0.1 mg/kg IV): 0.02 ± 0.01 Responses/Second
Non-Suppressed Response Rates Mean ± S.E.M. ([2]; 0.3 mg/kg IV): 2.68 ± 0.39 Responses/Second
Suppressed Response Rates Mean ± S.E.M. ([2]; 0.3 mg/kg IV): 0.47 ± 0.44 Responses/Second
Non-Suppressed Response Rates Mean ± S.E.M. ([2]; 1 mg/kg IV): 2.78 ± 0.36 Responses/Second
Suppressed Response Rates Mean ± S.E.M. ([2]; 1 mg/kg IV): 0.79 ± 0.45 Responses/Second
Non-Suppressed Response Rates Mean ± S.E.M. ([2]; 3 mg/kg IV): 1.02 ± 0.57 Responses/Second
Suppressed Response Rates Mean ± S.E.M. ([2]; 3 mg/kg IV): 0.46 ± 0.32 Responses/Second
